Like-named read-outs stand apart in the source and are kept apart here.
Tests used:
[1] = target: T1, L-glutaminase present in mice brain homogenate (Glutaminase(Brain)) (Mus musculus, UniProt D3Z7P3); test: Glutaminase enzyme activity using glutaminase enzyme from mice brain/kidney homogenate (Nessler's reagent, ammonia); assay type: biochemical; conditions: for inhibition at 0.1 µM: read-out: Glutaminase(Brain) activity % inhibition 0.1 μM; for inhibition at 1 µM: read-out: Glutaminase(Brain) activity % inhibition @1 μM
T1 sequence (D3Z7P3 55-674): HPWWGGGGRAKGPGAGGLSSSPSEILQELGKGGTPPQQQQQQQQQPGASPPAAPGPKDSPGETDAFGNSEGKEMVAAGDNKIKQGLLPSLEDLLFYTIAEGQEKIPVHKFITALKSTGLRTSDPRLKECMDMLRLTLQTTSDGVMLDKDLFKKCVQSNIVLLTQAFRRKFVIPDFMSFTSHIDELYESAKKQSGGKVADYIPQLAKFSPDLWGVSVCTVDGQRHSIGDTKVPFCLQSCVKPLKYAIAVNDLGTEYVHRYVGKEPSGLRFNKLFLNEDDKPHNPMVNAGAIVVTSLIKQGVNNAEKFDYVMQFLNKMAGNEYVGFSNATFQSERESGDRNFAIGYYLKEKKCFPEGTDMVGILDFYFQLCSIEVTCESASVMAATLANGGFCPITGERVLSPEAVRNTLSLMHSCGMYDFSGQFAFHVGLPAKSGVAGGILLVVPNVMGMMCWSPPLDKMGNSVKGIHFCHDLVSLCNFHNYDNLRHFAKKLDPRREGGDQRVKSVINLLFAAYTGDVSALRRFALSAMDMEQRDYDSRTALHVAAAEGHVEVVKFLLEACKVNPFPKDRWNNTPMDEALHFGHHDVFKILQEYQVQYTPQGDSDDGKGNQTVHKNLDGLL
Description: Assay 3: Determination of Glutaminase Enzyme Activity Using Glutaminase
Enzyme from Mice Brain/Kidney
Step 1: Preparation of Tissue Homogenates: Male Balb/c mice were administered 0.28 M ammonium chloride in drinking water for 7 days. The animals were sacrificed and brain/kidney organs collected on dry ice. […] The tissue was homogenized and supernatants were stored at −80° C. until the enzyme assay was performed.
Aim: Compounds were assessed for their ability to inhibit the enzymatic activity of L-glutaminase present in mice brain/kidney homogenate.
Protocol: The assay was performed using a colorimetric method using Nessler's Reagent by quantifying the amount of ammonia formed as a by product during the enzymatic conversion of L-glutamine to glutamate. In the routine assay, 16 μl of tissue homogenate is added to 33 μl of Tris-Hcl phosphate buffer (pH 8) along with 1 μl of DMSO/test compound containing the desired final concentration and vortexed briefly. 50 μl of 20 mM L-glutamine Tris buffer is added to start the reaction and incubated for 15 minutes at 37° C. The ammonia formed is detected by adding 20 μl of reaction mixture to cold water in a 96 well plate followed by 20 μl of Nessler's reagent. The colour developed is measured at 450 nm. Data Analysis: Activity of the test compound is reported as % inhibition and the data is analyzed using Graphpad Prism (Graphpad software; San Diego Calif.) for IC50 determination.

[2] = system: cancer cell lines; test: In vitro cell proliferation assay in cancer cell lines (MTT dye reduction, 72 h); assay type: cell-based; conditions: cancer cell line not named, 10% FBS media
Description: Assay 4: In Vitro Cell Proliferation Assay in Cancer Cell Lines
Growth inhibition assays were carried out using 10% FBS supplemented media. Cells were seeded at a concentration of 5000-20,000 cells/well in a 96-well plate. Test compounds at a concentration range from 0.01 to 10000 nM were added after 24 hours. Growth was assessed using the 3-[4,5-dimethylthiazol-2-yl]-2,5-diphenyltetrazolium bromide (MIT) dye reduction test at 0 h (prior to the addition of the test compound) and 72 hours after the addition of test compound. Absorbance was read on a Fluostar Optima (BMG Labtech, Germany) at a wave length of 450 nm. Data were analysed using GraphPad Prism and percent inhibition due to the test compound compared to the control was calculated accordingly.

| inhibition at 0.1 µM ([1]; 0.1 μM, mice brain homogenate) | inhibition at 1 µM ([1]; mice brain homogenate) | melting point | GI50 [2] | SMILES | inhibition at 0.1 µM [1] |
| --- | --- | --- | --- | --- | --- |
| < 25% | 50 to 75% | 135 to 137 °C | 1 to 5 µM | O=C(Cc1ccncc1)Nc1ccc(CCCCc2nnc(NC(=O)Cc3cccc(OC(F)(F)F)c3)s2)cn1 [Example-22, 2-(Pyridin-4-yl)-N-(5-(4-(5-(2-(3-(trifluoromethoxy)phenyl)acetamido)-1,3,4-thiadiazol-2-yl)butyl)pyridin-2-yl)acetamide] | – |
| < 25% | < 25% | 164 to 168 °C | – | O=C(Cc1ccccn1)Nc1nnc(CCCCc2ccc(NC(=O)Cc3cccc(OC(F)(F)F)c3)c(F)c2)s1 [Example-41, N-(5-(4-(3-Fluoro-4-(2-(3-(trifluoromethoxy)phenyl)acetamido)phenyl)butyl)-1,3,4-thiadiazol-2-yl)-2-(pyridin-2-yl)acetamide] | – |
| < 25% | < 25% | 130 to 133 °C | – | Cc1ccc(F)c(C(=O)Nc2nnc(CCCCc3ccc(NC(=O)Cc4cccc(OC(F)(F)F)c4)nc3)s2)n1 [Example-37, 3-Fluoro-6-methyl-N-(5-(4-(6-(2-(3-(trifluoromethoxy)phenyl)acetamido)pyridin-3-yl)butyl)-1,3,4-thiadiazol-2-yl)picolinamide] | – |
| < 25% | < 25% | 176 to 180 °C | – | O=C(Cc1cccnc1)Nc1nnc(CCCCc2ccc(NC(=O)Cc3cccc(OC(F)(F)F)c3)c(F)c2)s1 [Example-42, N-(5-(4-(3-Fluoro-4-(2-(3-(trifluoromethoxy)phenyl)acetamido)phenyl)butyl)-1,3,4-thiadiazol-2-yl)-2-(pyridin-3-yl)acetamide] | – |
| < 25% | < 25% | 153 to 155 °C | – | O=C(Cc1cccc(OC(F)(F)F)c1)Nc1ccc(CCCCc2ccc(NC(=O)Cc3cccc(OC(F)(F)F)c3)nc2)cn1 [Example-40, N,N′-(5,5′-(Butane-1,4-diyl)bis(pyridine-5,2-diyl))bis(2-(3-(trifluoromethoxy)phenyl)acetamide)] | – |
| 25 to 50% | 50 to 75% | 176 to 178 °C | < 0.1 µM | O=C(Cc1ccccn1)Nc1ccc(CCCCc2nnc(NC(=O)Cc3cccc(OC(F)(F)F)c3)s2)cn1 [Example-8, 2-(Pyridin-2-yl)-N-(5-(4-(5-(2-(3-(trifluoromethoxy)phenyl)acetamido)-1,3,4-thiadiazol-2-yl)butyl)pyridin-2-yl)acetamide] | – |
| < 25% | 50 to 75% | 174 to 178 °C | 5 to 10 µM | O=C(Cc1cccc(OC(F)(F)F)c1)Nc1ccc(CCCCc2nnc(NC(=O)Cn3cccn3)s2)cn1 [Example-27, N-(5-(4-(5-(2-(1H-pyrazol-1-yl)acetamido)-1,3,4-thiadiazol-2-yl)butyl)pyridin-2-yl)-2-(3-(trifluoromethoxy)phenyl)acetamide] | – |
| 75 to 100% | 75 to 100% | 176 to 178 °C | – | O=C(Cc1cccc(OC(F)(F)F)c1)Nc1ccc(CCCCc2nnc(NC(=O)Cc3cccnc3)s2)cn1 [Example-10, 2-(Pyridin-3-yl)-N-(5-(4-(6-(2-(3-(trifluoromethoxy)phenyl)acetamido)pyridin-3-yl)butyl)-1,3,4-thiadiazol-2-yl)acetamide] | – |

Continued, compound first:

| SMILES | inhibition at 0.1 µM ([1]; 0.1 μM, mice brain homogenate) | inhibition at 1 µM ([1]; mice brain homogenate) | melting point | GI50 [2] | inhibition at 0.1 µM [1] |
| --- | --- | --- | --- | --- | --- |
| O=C(Cc1cccc(OC(F)(F)F)c1)Nc1nnc(CC2CCC(Cc3nnc(NC(=O)Cc4cccc(OC(F)(F)F)c4)s3)CC2)s1 (stereo not drawn) [Example-104, N,N′-(5,5′-(cyclohexane-1,4-diylbis(methylene))bis(1,3,4-thiadiazole-5,2-diyl))bis(2-(3-(trifluoromethoxy)phenyl)acetamide)] | < 25% | < 25% | 240 to 244 °C | – | – |
| O=C(Cc1cccnc1)Nc1nnc(CC2CCC(Cc3nnc(NC(=O)Cc4cccnc4)s3)CC2)s1 (stereo not drawn) [Example-103, N,N′-(5,5′-(cyclohexane-1,4-diylbis(methylene))bis(1,3,4-thiadiazole-5,2-diyl))bis(2-(pyridin-3-yl)acetamide)] | 25 to 50% | 25 to 50% | 268 to 270 °C | – | – |
| O=C(Cc1cccnc1)Nc1nnc(C2CCC(c3nnc(NC(=O)Cc4cccnc4)s3)CC2)s1 (stereo not drawn) [Example-102, N,N′-(5,5′-(cyclohexane-1,4-diyl)bis(1,3,4-thiadiazole-5,2-diyl))bis(2-(pyridin-3-yl)acetamide)] | – | – | 180 to 182 °C | – | < 25% |
| CC(Cl)C(=O)Nc1nnc(CCCCc2ccc(NC(=O)Cc3cccc(OC(F)(F)F)c3)nc2)s1 (stereo not drawn) [Example-23, 2-Chloro-N-(5-(4-(6-(2-(3-(trifluoromethoxy)phenyl)acetamido)pyridin-3-yl)butyl)-1,3,4-thiadiazol-2-yl)propanamide] | < 25% | < 25% | 132 to 134 °C | 5 to 10 µM | – |
| O=C(Cc1cccc(OC(F)(F)F)c1)Nc1nnc(CC2CCC(Cc3nnc(NC(=O)Cc4ccccn4)s3)CC2)s1 (stereo not drawn) [Example-105, 2-(Pyridin-2-yl)-N-(5-((4-((5-(2-(3-(trifluoromethoxy)phenyl)acetamido)-1,3,4-thiadiazol-2-yl)methyl)cyclohexyl)methyl)-1,3,4-thiadiazol-2-yl)acetamide] | < 25% | < 25% | 278 to 280 °C | – | – |
| Cc1nc(NC(=O)Cc2cccc(OC(F)(F)F)c2)ccc1CCCCc1nnc(NC(=O)Cc2ccccn2)s1 [Example-9, N-(6-Methyl-5-(4-(5-(2-(pyridin-2-yl)acetamido)-1,3,4-thiadiazol-2-yl)butyl)pyridin-2-yl)-2-(3-(trifluoromethoxy)phenyl)acetamide] | < 25% | < 25% | 96 to 101 °C | – | – |
